Laboratory results reported in patent publication US11400070B2, “Methods of treating retinal diseases” (Alimera Sciences, Inc., priority 2018, dated 2022).
pEC50: −log10 of the molar value. Like-named read-outs stand apart in the source and are kept apart here.

Columns and labels:
ARPE-19 monolayers [1] = test: Cytotoxicity by microscopic inspection of monolayers and TEER reduction; format: cell-based; settings: for Cytotoxic: ARPE-19 monolayers, any concentration tested; for Cytotoxicity observed: any of the concentrations tested
Experimental: Cytotoxicity of test compounds was assessed by microscopic inspection of cellular monolayers and reductions in TEER following the administration of test compounds. All compounds were formulated fresh on the day of the experiment. Final concentrations were prepared by serial dilutions in DMEM media. Separate vehicle controls were prepared for each study. Formulation for all agents utilized vehicles containing less than 0.1% DMSO.

ARPE-19 monolayers [2] = test: Suppression of gHSA-induced reduction of TEER in confluent ARPE-19 monolayers; format: cell-based
rd10 mice [3] = test: Nitrite and nitrotyrosine assays in retinas of rd10 mice; format: in vivo, mouse; settings: 40 mg/kg daily s.c.
Experimental: (§1) Mice were treated in accordance with the Association for Research in Vision and Ophthalmology. Rd10^+/+ mice (B6.CXB1-Pde6brd10/J) were given daily subcutaneous injections of 40 mg/kg metipranolol provided by the British Pharmacopoeia Commission Laboratory, Tddington, UK or vehicle (PBS containing 5.8% ethanol) between P14 to P65.
Nitrite concentration in retinas from P35 rd10 mice was measured using the Nitrate/Nitrite Colorimetric Assay Kit (Cayman Chemical Company, Ann Arbor, Mich.) according to the manufacturer's instructions. Nitrotyrosine assay was performed on retinas from P35 mice using the 3-Nitrotyrosine ELISA kit (Abcam, Cambridge, Mass.).

NADPH Oxidase = NADPH Oxidase activity in retinas of rd10 mice; format: in vivo, mouse
rd10 mice [4] = test: Scotopic and photopic electroretinogram recordings in rd10 mice; format: in vivo, mouse
Experimental: as §1
Scotopic and photopic electroretinograms (ERGs) were recorded using a Diagnosys instrument (Espion, Littleton, Mass.). See Komeima K, Rogers B S, Lu L, Campochiaro P A. Antioxidants reduce cone cell death in a model of retinitis pigmentosa. Proc Natl Acad Sci USA 2006; 103:11300-5 and Komeima K, Rogers B S, Campochiaro P A. Antioxidants slow photoreceptor cell death in mouse models of retinitis pigmentosa. J Cell Physiol 2007; 213:809-15. For scotopic recordings, rd10 mice were dark adapted for overnight, anesthetized with a mixture of ketamine (100 mg/kg) and xylazine (5 mg/kg) by intraperitoneal injections, and pupils were dilated with 0.5% tropicamide and 0.5% phenylephrine hydrochloride provided by Santen Pharmaceutical Co., Osaka, Japan. Mice were placed on a heating pad and platinum electrodes were placed on the corneas after application of gonioscopic prism solution provided by Alcon Labs, Fort Worth, Tex. Reference electrode was attached subcutaneously between the eyes on the scalp and a ground electrode was attached to the tail. The Ganzfeld illuminator was then placed over the head in a position to ensure equal illumination to both eyes. Scotopic ERGs were recorded at 11 flash intensities (−4, −2.5, −2.2, −1.79, −1.39, −1, −0.6, −0.39, −0.20, 1.0, 1.39 log cd-s/m2). For each flash intensity, 5 readings were taken and averaged. For photopic ERGs, mice were initially light adapted for 7 minutes with 30 cd/m2 background light and flashed at 3 light intensities (0.6, 1.0, 1.39 log cd-s/m2). For each flash intensity, 5 readings were taken and averaged.

C57bl/6 female mice = test: Laser-induced choroidal neovascularization at Bruch's membrane rupture sites; format: in vivo, mouse; settings: 40 mg/kg daily s.c., 3 days before to 1 week after laser
Experimental: Choroidal neovascularization was induced by methods known to one of ordinary skill in the art. […] Am J Pathol 1998; 153(5):1641-6. Adult C57bl/6 female mice (Charles River, Wilmington, Mass.), 5 weeks of age, were given daily subcutaneous injections of 40 mg/kg metipranolol or vehicle (PBS containing 5.8% ethanol) every day, starting 3 days before laser-induced Bruch's membrane rupture and continuing through 1 week after laser treatment. Mice were anesthetized, with a mixture of ketamine (100 mg/kg) and xylazine (5 mg/kg) by intraperitoneal injections, and pupils were dilated with 0.5% tropicamide and 0.5% phenylephrine hydrochloride from Santen Pharmaceutical Co., Osaka, Japan. […] Following 1 week after laser, animals were euthanized and choroidal neovascularization was measured. […] The remaining eyecups consisting of the retinal pigmented epithelium, choroid, and sclera were stained with FITC-labeled Griffonia Simplicifolia lectin (GSA), which selectively stains vascular cells, fluorescent images were captured with an Axioskop microscope from Zeiss, Thornwood, N.Y., and the area of choroidal neovascularization at Bruch's membrane rupture sites were measured. These images were quantified using Image-Pro Plus software. […]

rd10 mice [5] = test: Superoxide radicals (dihydroethidium dye) in rd10 retinas; format: in vivo, mouse; settings: data not shown
rd10 mice [6] = test: TUNEL assay in retinas of rd10 mice; format: in vivo, mouse; settings: P23; 40 mg/kg daily s.c.
Experimental: as §1
Apoptotic cells were identified in retinas from P23 mice using the manufacturer's instructions for the In Situ Cell Death Detection Kit (Sigma Aldrich, St. Louis, Mo.).

rd10 mice [7] = test: Cone cell density in rd10 mice; format: in vivo, mouse; settings: P65; 40 mg/kg daily s.c.; 4 quadrants
Experimental: as §1
Cone cell density was measured by methods known by one of skill in the arts. See Komeima K, Rogers B S, Lu L, Campochiaro P A. Antioxidants reduce cone cell death in a model of retinitis pigmentosa. Proc Natl Acad Sci USA 2006; 103:11300-5 and Komeima K, Rogers B S, Campochiaro P A. Antioxidants slow photoreceptor cell death in mouse models of retinitis pigmentosa. J Cell Physiol 2007; 213:809-15. Briefly, mice at P65 were euthanized and the eyes were removed and fixed in 4% PFA for 1 hour followed by dissection to remove cornea, iris and lens. The retina was carefully isolated from the eyecup and a small incision was made at the nasal position for future orientation. […] The retinas were flat mounted and visualized by fluorescence microscopy using an excitation wavelength of 543 nm to detect rhodamine fluorescence of PNA.

rd10 mice [8] = test: Outer nuclear layer (ONL) thickness in rd10 mice; format: in vivo, mouse; settings: P35; 40 mg/kg daily s.c.; 6 locations measured
Experimental: as §1
Measurements of ONL thickness were performed using methods known to one of skill in the art. See Lee S Y, Usui S, Zafar A B, et al. N-acetylcysteine promotes long term survival of cones in a model of retinitis pigmentosa. 2010; 226:1843-9. Briefly, 10 micron frozen ocular sections were cut in the 12:00 to 6:00 meridian, stained with hematoxylin and eosin, visualized with an Axioskop microscope from Zeiss, Thornwood, N.Y. and images were digitized using a three charge-coupled device (CCD) color video camera from Toshiba, Tokyo, Japan, and a frame grabber. […] Three separate sections were used for each mouse and averaged. Eight animals injected with vehicle and 9 animals injected with metipranolol were used to evaluate ONL thickness between these two groups.

rd10 mice [9] = test: Immunohistochemistry (rhodopsin, cone arrestin, 3-nitrotyrosine) of rd10 retinas; format: in vivo, mouse; settings: 40 mg/kg daily s.c.
Experimental: as §1
Ten microns ocular frozen sections were stained with anti-rhodopsin antibody 1D4 (1:200, ThermoFisher Scientific, Waltham, Mass.), anti-3-nitrotyrosine antibody (10 μg/ml, EMD Millipore, Temecula, Calif.) or anti-cone arrestin antibody (1:10,000, EMD Millipore, Temecula, Calif.).

## Cc1cc(OCC(O)CNC(C)C)c(C)c(C)c1O (centres unmarked) [Desacetylmetipranolol, desacetylmetipranolol]
ARPE-19 monolayers [1]
  Cytotoxic: No
  Cytotoxicity observed: No cytotoxicity was observed
ARPE-19 monolayers [2]; pretreatment 10 μM, 4 and 6 hours after gHSA
  Effect on gHSA induced reduction in RPE resistance (TEER): suppressed the gHSA induced reduction in RPE resistance
ARPE-19 monolayers [2]; read-out: EC50 for suppression of the decrease in TEER induced by gHSA, pretreatment, gHSA 100 μg/mL
  pEC50: 6.01

## CC1(C)O[C@@H]2C[C@H]3[C@@H]4C[C@H](F)C5=CC(=O)C=C[C@]5(C)[C@@]4(F)[C@@H](O)C[C@]3(C)[C@]2(C(=O)CO)O1 [Fluocinolone, fluocinolone acetonide]
ARPE-19 monolayers [1]
  Cytotoxic: No
  Cytotoxicity observed: No cytotoxicity was observed
ARPE-19 monolayers [2]; pretreatment 10^−6 to 10^−4 M, gHSA 100 μg/mL
  Effect on reduction in TEER induced by gHSA: did not significantly alter

## CC(=O)Oc1c(C)cc(OCC(O)CNC(C)C)c(C)c1C (centres unmarked) [Metipranolol, metipranolol]
rd10 mice [3]; P35
  Mean concentration of nitrite in retinal homogenates: significantly greater in retinal homogenates from P35 vehicle-treated versus metipranolol-treated rd10 mice
rd10 mice [3]; P35 retinas
  Mean concentration of 3-nitrotyrosine protein adducts (ELISA) vs vehicle: significant reduction
NADPH Oxidase
  NADPH Oxidase activity: did not reduce NADPH Oxidase activity
rd10 mice [4]; P35, 40 mg/kg daily s.c. from P14, all 11 flash intensities
  Mean scotopic b-wave amplitude vs vehicle: significantly higher
rd10 mice [4]; P35, 40 mg/kg daily s.c. from P14, flash 1.0 and 1.39 log cd-s/m2
  Mean scotopic a-wave amplitude vs vehicle: significantly greater
rd10 mice [4]; P35, 40 mg/kg daily s.c., 0.6 and 1.0 log cd-s/m2
  Photopic b-wave amplitudes vs vehicle: significantly higher
rd10 mice [4]; P50, 40 mg/kg daily s.c., 1.0 and 1.39 log cd-s/m2
  Mean scotopic b-wave amplitude vs vehicle: significantly higher
rd10 mice [4]; P50, 40 mg/kg daily s.c., 1.39 log cd-s/m2
  Mean photopic b-wave amplitude vs vehicle: significantly greater
ARPE-19 monolayers [1]
  Cytotoxic: No
  Cytotoxicity observed: No cytotoxicity was observed
C57bl/6 female mice
  Area of choroidal neovascularization at Bruch's membrane rupture sites vs vehicle: significantly reduced
rd10 mice [5]
  Superoxide radicals (dihydroethidium dye) vs vehicle: no differences were found
rd10 mice [6]
  TUNEL-positive cells in retina: few TUNEL-positive cells
ARPE-19 monolayers [2]; Homo sapiens, ARPE-19 assay, concentration-response, gHSA-induced TEER decrease, read-out: EC50
  pEC50: 5.89
rd10 mice [7]
  Mean cone photoreceptor cell density vs vehicle: significantly greater in 3 of 4 quadrants
rd10 mice [8]
  Mean ONL thickness vs vehicle: significantly greater at 4 of the 6 locations
rd10 mice [9]; P35
  Rhodopsin staining of outer segments: substantially more rhodopsin staining
rd10 mice [9]; P50
  Staining for cone arrestin: robust
  Staining for nitrotyrosine: greater staining for nitrotyrosine in retinas from P50 vehicle-treated rd10 mice, than in P50 metipranolol-treated rd10 mice
